This is an account of results in patent US20120040920A1, “OLIGOSACCHARIDE ALDONIC ACIDS AND THEIR TOPICAL USE” (priority 1999, published 2012).

A short description of data set [1]: antioxidant property, hydroquinone test method. It is filed as physicochemical. The settings on record: oil-in-water cream, 2% hydroquinone, test substance 0.4 M, room temperature, 5 days. From the text:
(§1) An antioxidant may be defined as a substance capable of preventing or inhibiting oxidation. […] The antioxidant property is readily determined by using any one of the following test methods: prevention or retardation of air oxidation of (a) anthralin, (b) hydroquinone, or (c) banana peel. A freshly prepared anthralin solution or cream is bright yellow, and an air oxidized one is brownish or black. A hydroquinone solution or cream is colorless or white color, and an air oxidized one is brownish or black. A freshly peeled banana peel is light yellow in color and an oxidized one ranges in color from tan, dark tan, brown to brownish black.
Antioxidant property of an oligosaccharide aldonic acid may also be determined by utilizing hydroquinone test method as follows. Hydroquinone also known as 1,4-dihydroxybenzene is a white powder, and a composition containing hydroquinone without a suitable antioxidant is chemically unstable even at room temperature. For example, hydroquinone 2% in an oil-in-water cream changed in color from white to grey within 2 hours, and the cream became light brown within 48 hours and dark brown after 72 hours at room temperature.

A short description of data set [2]: antioxidant property, banana peel test method. The settings on record: 2×2 cm peels in 5 ml 0.1 M test solution; water control tan within 4 hours.
From the text: as §1
For example, in control experiments, fresh banana peels cut into sizes of 1×2 cm in 50 mm plastic petri dishes containing 5 ml water at neutral or acidic pH changed in color from white-yellowish to tan within 6 hours at room temperature, and changed to dark tan color during the next period of 24 to 72 hours.
Antioxidant property of an oligosaccharide aldonic acid may also be determined by utilizing banana peel test method as follows.
A fresh ripe banana peel cut into sizes of 2×2 cm has the outer layer light yellow in color. These freshly cut banana peels after exposed to air or immersed in an aqueous solution without an antioxidant in 50 mm plastic petri dishes rapidly changed in color from yellowish to tan within 3 hours, dark tan within 24 hours and brown black after 72 hours. A test substance including a positive control such as vitamin C, citric acid or N-acetylcysteine was prepared as 0.1 M concentration, and each test dish contained 5 ml test solution. Freshly cut banana peels 2×2 cm in sizes were immersed in 5 ml test solutions including known antioxidants and vehicle controls with pH at 7.0 and 4.0. […] The same results were also found for the known antioxidant substances; vitamin C, citric acid and N-acetylcysteine.

Data set [3] in a line: gel matrix formation on evaporation of an aqueous solution at room temperature. It is filed as physicochemical. The settings on record: for gel matrix formation: 1 g in 1 ml water, 20-25° C., slow evaporation; for acid content of the gel film / water retained in the gel film (gel matrix): by weight, 1 g acid in 1 ml water evaporated at room temperature; for original water evaporated: 1 g acid in 1 ml water, room temperature. An excerpt: In contrast to an alpha hydroxyacid and polyhydroxyacid, an oligosaccharide aldonic acid can form a gel matrix when its aqueous solution is evaporated at room temperature. The transparent gel obtained retains certain amount of water forming a clear gel matrix. The amount of water retention depends on individual oligosaccharide aldonic acid. Examples of gel matrix preparations are provided below.
In one example, a gel matrix can be formed when aqueous solution comprising an oligosaccharide aldonic acid is evaporated at room temperature. The transparent gel thus obtained retains certain amount of water forming a clear gel matrix. The amount of water retention depends on individual oligosaccharide aldonic acid. For example, maltobionic acid 1 g in a beaker was dissolved in water 1 ml, and the solution thus obtained was left at room temperature. Fifty percent of the original water had been evaporated at the end of 24 hours, and 57% at the end of 48 hours, and 60% at the end of 72 hours, and no more or minimal evaporation of water could be detected after 72 hours. A clear gel film thus obtained contained 29% water complexed with maltobionic acid molecules. In the same manner, lactobionic acid formed a clear gel matrix with 14% water molecules and cellobionic acid formed a transparent gel with 7% water molecules.
A typical experiment to determine a gel matrix formation of an oligosaccharide aldonic acid may be carried out as follows.
Maltobionic acid 1 g in a beaker of 3.6 cm diameter and 3.6 cm height was dissolved in water 1 ml, and the solution thus obtained was left at room temperature between 20-25° C. to allow a slow evaporation of the water. […] The continuous transparent film thus obtained consisted of 71% maltobionic acid and 29% water by weight, and was formed as a complex gel matrix between maltobionic acid molecules and water molecules.

Data set [4] in a line: antioxidant property, anthralin test method. The class given is physicochemical. The settings on record: oil-in-water cream, 0.4% anthralin, test substance 0.1 M, 24 hours.
From the text: as §1
Antioxidant property of an oligosaccharide aldonic acid may be determined by utilizing anthralin test method as follows.
Anthralin also known as dithranol is a yellowish powder, and a composition containing anthralin without a suitable antioxidant is chemically unstable even at room temperature. For example, anthralin 0.05% in an oil-in-water cream changed in color from yellow to gray within 24 hours at room temperature, and the cream became brownish within 48 hours. Under anhydrous condition, anthralin 0.05% ointment prepared from white petrolatum 2 parts and mineral oil 1 part by weight changed in color from bright yellow to grayish yellow within 24 hours, and the ointment became brownish after 12 days at room temperature.
Based on the above observations, an oil-in-water cream containing 0.4% anthralin with or without a known antioxidant was used as a positive or vehicle control.

For data set [5], the system named is acute erythema on thighs. Kind of data set: topical treatment of acute erythema after hot shower with alkaline soap. It is filed as in vivo, human. The settings on record: 3% partially neutralized cream, left thigh, person; control side persisted. An excerpt: A subject with sensitive skin developed acute erythema on their both thighs after taking hot shower using alkaline soap. They applied 3% partially neutralized maltobionic acid cream on their left thigh and a control cream on their right thigh.

For data set [6], the system named is xerosis with flaky dry skin. The data set is described as follows: topical treatment of xerosis of forearms. It is filed as in vivo, human. The settings on record: 5% water-in-oil cream twice daily, two weeks, person. An excerpt: A subject, having xerosis with flaky dry skin condition of their forearms topically applied twice daily maltobionic acid 5% water-in-oil cream for two weeks.

For data set [7], the system named is chronic atopic eczema and pruritic dry skin. Kind of data set: topical treatment of chronic atopic eczema and pruritic dry skin. The settings on record: 17% cream twice daily, person. The class given is in vivo, human. An excerpt:
A subject with chronic atopic eczema and pruritic dry skin topically applied twice daily maltobionic acid 17% cream to itchy skin areas of eczema and dry skin lesions for two weeks.

Turning to `CC(=O)N[C@@H](CS)C(=O)O` [N-acetylcysteine, reference compound], the “colour change of hydroquinone cream” value in data set [1] is “did not change color”. The “colour change of banana peels” value in data set [2] is listed as “same results”.
Regarding `O=C(O)[C@H](O)[C@@H](O)[C@H](O[C@@H]1O[C@H](CO)[C@@H](O)[C@H](O)[C@H]1O)[C@H](O)CO` [cellobionic acid], the “colour change of hydroquinone cream” value in data set [1] is recorded as “did not change color”. Also, in data set [3], the gel matrix formation result is “clear continuous gel film was formed”, the “acid content of the gel film” value came to 93% and the “water retained in the gel film (gel matrix)” value is 7%. In data set [4], the “colour change of anthralin cream” value is given as “did not change the color”.
As to `O=C(O)CC(O)(CC(=O)O)C(=O)O` [citric acid, reference compound], the “colour change of hydroquinone cream” value in data set [1] was “did not change color”. Also, the “colour change of banana peels” value in data set [2] was “same results”.
In the case of `O=C(O)[C@H](O)[C@@H](O)[C@H](O)[C@H](O)CO` [gluconic acid, reference compound], the gel matrix formation result in data set [3] is listed as “did not form any form of a gel matrix”.
For `O=C(O)[C@H](O)[C@@H](O)[C@H](O[C@@H]1O[C@H](CO)[C@H](O)[C@H](O)[C@H]1O)[C@H](O)CO` [maltobionic acid], the erythema and itch entry in data set [5] is “disappeared within a few minutes”. Also, in data set [1], the “colour change of hydroquinone cream” value was “did not change color”. Besides, the “colour change of banana peels” value in data set [2] is reported as “did not change color”. Also, the dry skin condition entry in data set [6] is listed as “dry skin condition disappeared completely”. The original water evaporated result is “Fifty” in data set [3] (end of 24 hours), 57% in data set [3] (end of 48 hours), 60% in data set [3] (end of 72 hours) and 60.5% in data set [3] (end of 96 hours). Moreover, the gel matrix formation entry in data set [3] is recorded as “clear continuous gel film was formed”. Moreover, the “water retained in the gel film (gel matrix)” value in data set [3] and in data set [3] (listed as Maltobionic acid) was 29% in each case. Besides, in data set [3] (listed as Maltobionic acid), the “acid content of the gel film” value stood at 71%. In addition, the “colour change of anthralin cream” value in data set [4] was “did not change the color”. In addition, the eczema lesions result in data set [7] (after two weeks) is reported as “improved significantly”. The “condition of treated skin” value in data set [7] (within a week) is “became smooth and less dry and itchy”.
`O=C(O)C(=O)O` [oxalic acid, reference compound]: the “colour change of anthralin cream” value in data set [4] is “did not change the color”.
In the case of `O=C1O[C@H]([C@@H](O)CO)C(O)=C1O` [vitamin C, reference compound], in data set [1], the “colour change of hydroquinone cream” value is reported as “did not change color”. Moreover, the “colour change of banana peels” value in data set [2] is given as “same results”. Further, the “colour change of anthralin cream” value in data set [4] was “did not change the color”.
